Columns and labels:
Assay in all cases: relative viability (nuclei count vs DMSO), 5 days (fraction); higher = more cells survive
RERF-LC-KJ = system: RERF-LC-KJ
Method in brief: (§1)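 Cells from lung cancer lines were seeded into 1536-well plates and, one day later, dosed by pin tool. Treatments were either a single drug or a fixed dose of an anchor drug with five library-drug doses (not always all listed) in √10 steps. After 5 days, nuclei were stained in a one-step fixation (final 0.05% Triton X-100, 1% formaldehyde, 1 ug/ml Hoechst) and counted on 4× images, and relative viability is the treated-to-vehicle nuclei ratio, as the median of duplicate plates.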

SK-LU-1 = system: SK-LU-1
Method in brief: as §1

EMC-BAC-2 = system: EMC-BAC-2
Method in brief: as §1

HARA = system: HARA
Method in brief: as §1

COR-L23 = system: COR-L23
Method in brief: as §1

HOP-62 = system: HOP-62
Method in brief: as §1

NCI-H1437 = system: NCI-H1437
Method in brief: as §1

UMC-11 = system: UMC-11
Method in brief: as §1

NCI-H596 = system: NCI-H596
Method in brief: as §1

CAL-12T = system: CAL-12T
Method in brief: as §1

NCI-H1651 = system: NCI-H1651
Method in brief: as §1

NCI-H1650 = system: NCI-H1650
Method in brief: as §1

NCI-H727 = system: NCI-H727
Method in brief: as §1

PC-3 [JPC-3] = system: PC-3 [JPC-3]
Method in brief: as §1

NCI-H1734 = system: NCI-H1734
Method in brief: as §1

NCI-H2347 = system: NCI-H2347
Method in brief: as §1

NCI-H1563 = system: NCI-H1563
Method in brief: as §1

NCI-H3122 = system: NCI-H3122
Method in brief: as §1

NCI-H441 = system: NCI-H441
Method in brief: as §1

NCI-H1755 = system: NCI-H1755
Method in brief: as §1

LK-2 = system: LK-2
Method in brief: as §1

ABC-1 = system: ABC-1
Method in brief: as §1

HCC-366 = system: HCC-366
Method in brief: as §1

Cc1cn(-c2cc(NC(=O)c3ccc(C)c(Nc4nccc(-c5cccnc5)n4)c3)cc(C(F)(F)F)c2)cn1 [Nilotinib] + N=C(N)NC(=N)NCCc1ccccc1 [Phenformin] (partner 250 µM) showed a relative viability (RERF-LC-KJ; first compound 0.001 µM) of 0.406, a relative viability (RERF-LC-KJ; first compound 0.003162 µM) of 0.449 and a relative viability (RERF-LC-KJ; first compound 0.01 µM) of 0.43. For the same compound, the relative viability (RERF-LC-KJ; first compound 0.03162 µM) was 0.344, the relative viability (RERF-LC-KJ; first compound 0.1 µM) was 0.453 and the relative viability (SK-LU-1; first compound 0.001 µM) was 0.47. For the same compound, the relative viability (SK-LU-1; first compound 0.003162 µM) was 0.455, the relative viability (SK-LU-1; first compound 0.01 µM) was 0.597 and the relative viability (SK-LU-1; first compound 0.03162 µM) was 0.402. It also gave a relative viability (SK-LU-1; first compound 0.1 µM) of 0.306, a relative viability (EMC-BAC-2; first compound 0.001 µM) of 0.474 and a relative viability (EMC-BAC-2; first compound 0.003162 µM) of 0.553. The relative viability (EMC-BAC-2; first compound 0.01 µM) was 0.491, the relative viability (EMC-BAC-2; first compound 0.03162 µM) was 0.44 and the relative viability (EMC-BAC-2; first compound 0.1 µM) was 0.484. For the same compound, the relative viability (HARA; first compound 0.001 µM) was 0.402, the relative viability (HARA; first compound 0.003162 µM) was 0.555 and the relative viability (HARA; first compound 0.01 µM) was 0.613. For the same compound, the relative viability (HARA; first compound 0.03162 µM) was 0.29, the relative viability (HARA; first compound 0.1 µM) was 0.322 and the relative viability (COR-L23; first compound 0.001 µM) was 0.448. It also gave a relative viability (COR-L23; first compound 0.003162 µM) of 0.52, a relative viability (COR-L23; first compound 0.01 µM) of 0.591 and a relative viability (COR-L23; first compound 0.03162 µM) of 0.42. The relative viability (COR-L23; first compound 0.1 µM) was 0.45, the relative viability (HOP-62; first compound 0.001 µM) was 0.512 and the relative viability (HOP-62; first compound 0.003162 µM) was 0.706. For the same compound, the relative viability (HOP-62; first compound 0.01 µM) was 0.771, the relative viability (HOP-62; first compound 0.03162 µM) was 0.444 and the relative viability (HOP-62; first compound 0.1 µM) was 0.441. The relative viability (NCI-H1437; first compound 0.001 µM) was 0.325, the relative viability (NCI-H1437; first compound 0.003162 µM) was 0.335 and the relative viability (NCI-H1437; first compound 0.01 µM) was 0.331. It also gave a relative viability (NCI-H1437; first compound 0.03162 µM) of 0.23, a relative viability (NCI-H1437; first compound 0.1 µM) of 0.224 and a relative viability (UMC-11; first compound 0.001 µM) of 0.312. For the same compound, the relative viability (UMC-11; first compound 0.003162 µM) was 0.344, the relative viability (UMC-11; first compound 0.01 µM) was 0.324 and the relative viability (UMC-11; first compound 0.1 µM) was 0.217. The relative viability (NCI-H596; first compound 0.001 µM) was 0.588, the relative viability (NCI-H596; first compound 0.003162 µM) was 0.697 and the relative viability (NCI-H596; first compound 0.01 µM) was 0.909. For the same compound, the relative viability (NCI-H596; first compound 0.03162 µM) was 0.475, the relative viability (NCI-H596; first compound 0.1 µM) was 0.432 and the relative viability (CAL-12T; first compound 0.001 µM) was 0.554. It also gave a relative viability (CAL-12T; first compound 0.003162 µM) of 0.563, a relative viability (CAL-12T; first compound 0.01 µM) of 0.701 and a relative viability (CAL-12T; first compound 0.03162 µM) of 0.436. The relative viability (CAL-12T; first compound 0.1 µM) was 0.47, the relative viability (NCI-H1651; first compound 0.001 µM) was 0.346 and the relative viability (NCI-H1651; first compound 0.003162 µM) was 0.392. For the same compound, the relative viability (NCI-H1651; first compound 0.01 µM) was 0.437, the relative viability (NCI-H1651; first compound 0.03162 µM) was 0.308 and the relative viability (NCI-H1651; first compound 0.1 µM) was 0.356. It also gave a relative viability (NCI-H1650; first compound 0.001 µM) of 0.464, a relative viability (NCI-H1650; first compound 0.003162 µM) of 0.437 and a relative viability (NCI-H1650; first compound 0.01 µM) of 0.385. It also gave a relative viability (NCI-H1650; first compound 0.03162 µM) of 0.32, a relative viability (NCI-H1650; first compound 0.1 µM) of 0.307 and a relative viability (NCI-H727; first compound 0.001 µM) of 0.579. For the same compound, the relative viability (NCI-H727; first compound 0.003162 µM) was 0.577, the relative viability (NCI-H727; first compound 0.01 µM) was 0.419 and the relative viability (NCI-H727; first compound 0.03162 µM) was 0.379. It also gave a relative viability (NCI-H727; first compound 0.1 µM) of 0.346, a relative viability (PC-3 [JPC-3]; first compound 0.001 µM) of 0.463 and a relative viability (PC-3 [JPC-3]; first compound 0.003162 µM) of 0.49. The relative viability (PC-3 [JPC-3]; first compound 0.01 µM) was 0.475, the relative viability (PC-3 [JPC-3]; first compound 0.03162 µM) was 0.443 and the relative viability (PC-3 [JPC-3]; first compound 0.1 µM) was 0.482. It also gave a relative viability (NCI-H1734; first compound 0.001 µM) of 0.359, a relative viability (NCI-H1734; first compound 0.003162 µM) of 0.396 and a relative viability (NCI-H1734; first compound 0.01 µM) of 0.368. It also gave a relative viability (NCI-H1734; first compound 0.03162 µM) of 0.27, a relative viability (NCI-H1734; first compound 0.1 µM) of 0.3 and a relative viability (NCI-H2347; first compound 0.001 µM) of 0.386. The relative viability (NCI-H2347; first compound 0.003162 µM) was 0.308, the relative viability (NCI-H2347; first compound 0.01 µM) was 0.551 and the relative viability (NCI-H2347; first compound 0.03162 µM) was 0.277. It also gave a relative viability (NCI-H2347; first compound 0.1 µM) of 0.327, a relative viability (NCI-H1563; first compound 0.001 µM) of 0.635 and a relative viability (NCI-H1563; first compound 0.003162 µM) of 0.689. It also gave a relative viability (NCI-H1563; first compound 0.01 µM) of 0.609, a relative viability (NCI-H1563; first compound 0.03162 µM) of 0.635 and a relative viability (NCI-H1563; first compound 0.1 µM) of 0.61. The relative viability (NCI-H3122; first compound 0.001 µM) was 0.36, the relative viability (NCI-H3122; first compound 0.003162 µM) was 0.375 and the relative viability (NCI-H3122; first compound 0.01 µM) was 0.341. For the same compound, the relative viability (NCI-H3122; first compound 0.03162 µM) was 0.352, the relative viability (NCI-H3122; first compound 0.1 µM) was 0.309 and the relative viability (NCI-H441; first compound 0.001 µM) was 0.798. For the same compound, the relative viability (NCI-H441; first compound 0.003162 µM) was 0.89, the relative viability (NCI-H441; first compound 0.01 µM) was 0.896 and the relative viability (NCI-H441; first compound 0.03162 µM) was 0.648. For the same compound, the relative viability (NCI-H441; first compound 0.1 µM) was 0.881, the relative viability (NCI-H1755; first compound 0.001 µM) was 0.589 and the relative viability (NCI-H1755; first compound 0.003162 µM) was 0.616. The relative viability (NCI-H1755; first compound 0.01 µM) was 0.564, the relative viability (NCI-H1755; first compound 0.03162 µM) was 0.534 and the relative viability (NCI-H1755; first compound 0.1 µM) was 0.486. It also gave a relative viability (LK-2; first compound 0.001 µM) of 0.441, a relative viability (LK-2; first compound 0.003162 µM) of 0.367 and a relative viability (LK-2; first compound 0.01 µM) of 0.337. The relative viability (LK-2; first compound 0.03162 µM) was 0.22, the relative viability (LK-2; first compound 0.1 µM) was 0.314 and the relative viability (ABC-1; first compound 0.001 µM) was 0.219. It also gave a relative viability (ABC-1; first compound 0.003162 µM) of 0.243, a relative viability (ABC-1; first compound 0.01 µM) of 0.259 and a relative viability (ABC-1; first compound 0.03162 µM) of 0.249. The relative viability (ABC-1; first compound 0.1 µM) was 0.264, the relative viability (HCC-366; first compound 0.001 µM) was 0.623 and the relative viability (HCC-366; first compound 0.003162 µM) was 0.584. For the same compound, the relative viability (HCC-366; first compound 0.01 µM) was 0.655, the relative viability (HCC-366; first compound 0.03162 µM) was 0.257 and the relative viability (HCC-366; first compound 0.1 µM) was 0.555.
